According to PMC11744575 (Advanced Science, 2024):
Values belong to the molecule of their own block, whether it stands above or below them.

What was measured:
[1] = system: primary hepatocytes; test: Intracellular triglyceride content and BODIPY staining in primary hepatocytes; assay type: cell-based, mouse; conditions: for effect of co-incubation on triglyceride levels within BBR-treated hepatocytes: co-incubation with BBR in the presence of OA
Protocol: To establish an in vitro model of hepatic steatosis, hepatocytes were treated with 0.2 mM oleic acid (OA, O7501, Sigma‐Aldrich) for 16 h. OA was pre‐incubated with 10% bovine serum albumin (BSA, Sigma‐Aldrich) (1:4) for 1 h and then added to the cell culture medium along with different compounds.
Primary hepatocytes were washed three times with phosphate‐buffered saline (PBS) and then subjected to three repeated freeze‐thaw cycles. The released intracellular triglyceride content was then measured using a commercial assay kit (Jiancheng). Protein content was used for normalization.
The lipid droplets in the hepatocytes in 6‐well plates were visualized by first washing the cells and then immersing them in a serum‐free medium. Subsequently, […] BODIPY 493/503 (Sigma‐Aldrich) was added to the medium, and the cells were incubated for 20 min for staining, followed by imaging with confocal microscopy (Olympus, Tokyo, Japan).

[2] = Pharmacokinetic profile of BBR and 6-OH-BBR in db/db and lean mice (plasma, liver); assay type: in vivo, mouse
Protocol: Briefly, blood samples (50 µL) were collected at different time points post‐drug administration (no more than three collections per mouse), centrifuged at 4 °C and 8000 g for 5 min, and the upper plasma layer was collected. At 2 and 24 h post‐dosing, the mice were sacrificed, and liver tissues were collected for cryopreservation and prepared as homogenates (W/V: 0.1 g·mL^−1) for drug concentration determinations.
(§1) Briefly, proteins in the samples were precipitated with three volumes of methanol containing an internal standard (chlorophenylalanine). After centrifugation at 30 000 g for 10 min at 4 °C, the supernatant was injected into the LC‐MS/MS system for analysis. Chromatographic separation was conducted using a ZORBAX 300SB C18 column (100 × 2.1 mm, 3.5 µm, Agilent, CA, USA) at 40 °C on a Shimadzu HPLC system.

[3] = system: PPARγ target genes; test: qPCR of PPARγ target genes in primary hepatocytes; assay type: cell-based, mouse; conditions: co-incubation with BBR
Protocol: Tissues or cells were lysed using TRIzol (#1 218 355, Invitrogen, Thermo Fisher Scientific, MA, USA) for subsequent RNA extraction through a series of steps involving chloroform extraction and isopropanol and ethanol precipitation. Reverse transcription and cDNA synthesis were performed using a reverse transcription and cDNA synthesis kit (#639 506, Takara Bio Inc., Kusatsu, Shiga, Japan) to synthesize complementary DNA (cDNA) from […] of RNA. Quantitative real‐time PCR analysis was conducted utilizing SYBR Green pre‐mix (Q111‐02, Vazyme Biotech Co., Ltd, Nanjing, China) and subsequently analyzed employing the Roche real‐time PCR system. The mRNA expression levels were calculated and quantified utilizing the relative standard curve method and subsequently normalized to the expression of the housekeeping gene Gapdh. The primer sequences utilized for qPCR analysis are listed in Table S2 (Supporting Information).

[4] = system: db/db mice; test: 4-week administration in db/db mice (liver injury, steatosis, glucose profiles); assay type: in vivo, mouse
[5] = system: Primary cultured mouse hepatocytes; test: Cell viability (CCK8) cytotoxicity assay; assay type: cell-based
Source text: C) BODIPY staining in different groups; images are shown under 600× or 1800× magnification, scale bar = 100 µm. D) Flow scheme of RNA sequencing.
Primary hepatocytes were isolated from the livers of 6‐week‐old male C57BL/6J mice as previously described.^[ [25] ^] Briefly, the liver was thoroughly digested by injection of type IV collagenase (C4‐BIOC, Sigma‐Aldrich, Louis, MO, USA) via the portal vein. The perfused liver was excised, dispersed, and filtered through a 70 µm filter, and the digestion was terminated by adding cold Dulbecco's modified Eagle's medium (DMEM, #11 960 044, Gibco, Grand Island, NY, USA). The cell suspension was centrifuged at 4 °C at 50 g for 5 min to remove the supernatant and debris. An equal volume of DMEM and Percoll (CAS 65455‐52‐9, Sigma‐Aldrich) was then mixed thoroughly and centrifuged at 50 g for 15 min at 4 °C. The viable cell layer at the bottom was collected and further centrifuged in DMEM to prepare the cell seeding plate. Cells were seeded in a 6‐well plate at a density of 1 × 10^6 cells per well and cultured in DMEM medium supplemented with 10% fetal bovine serum (FBS, Gibco) at 37 °C in a 5% CO2 incubator.

[6] = target: T1, recombinant human PPARγ protein (Homo sapiens, UniProt P37231); test: MicroScale Thermophoresis (MST) of rosiglitazone binding with/without BBR; conditions: rosiglitazone affinity in presence/absence of BBR
T1 construct: purchased Sino Biotechnology, Beijing, China
T1 sequence (P37231 1-505): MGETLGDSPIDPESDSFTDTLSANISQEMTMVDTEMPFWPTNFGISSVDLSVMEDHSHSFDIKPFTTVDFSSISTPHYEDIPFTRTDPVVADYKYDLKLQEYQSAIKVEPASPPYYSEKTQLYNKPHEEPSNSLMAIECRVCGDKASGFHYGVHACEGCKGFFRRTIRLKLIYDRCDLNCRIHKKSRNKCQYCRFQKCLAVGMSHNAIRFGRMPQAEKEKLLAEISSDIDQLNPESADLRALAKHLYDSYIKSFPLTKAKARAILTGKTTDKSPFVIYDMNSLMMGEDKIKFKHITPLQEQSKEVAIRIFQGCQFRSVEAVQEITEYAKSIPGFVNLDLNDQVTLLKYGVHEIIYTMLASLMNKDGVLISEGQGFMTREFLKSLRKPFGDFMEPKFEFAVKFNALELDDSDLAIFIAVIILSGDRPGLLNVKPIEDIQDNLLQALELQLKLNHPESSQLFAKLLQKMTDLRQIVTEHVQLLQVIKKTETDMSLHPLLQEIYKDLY

[7] = BBR metabolism kinetics with liver S9 fractions; assay type: in vitro ADME, mouse; conditions: for Km at 2 h: mouse, liver S9 fraction
Protocol: The incubations were carried out for 2 h at 37 °C in a 100 µL reaction volume containing the pooled liver S9 fraction (7.5 mg·mL^−1) and an NADPH‐regenerating system consisting of MgCl2 (40 mM), glucose‐6‐phosphate (40 µM), NADP^+ (8 µM), and glucose 6‐phosphate dehydrogenase (4 U·mL^−1). The reactions were terminated by the addition of 300 µL of ice‐cold acetonitrile containing the internal standard (chlorophenylalanine), followed by rigorous mixing and centrifugation. The supernatants were subsequently analyzed by LC‐MS/MS, employing methodologies detailed in previous publications.^[ [27] ^]
as §1

[8] = system: livers of healthy rats; set-up: method as in PMID 1701930; conditions: up to 102 weeks of treatment; cited from earlier work
[9] = system: peroxisome proliferator‐activated receptor alpha (PPARα); set-up: method as in PMID 18274627; conditions: cited from earlier work
[10] = system: peroxisome proliferator‐activated receptor gamma (PPARγ); set-up: method as in PMID 18274627; conditions: cited from earlier work
[11] = system: obese mice models; set-up: method as in PMID 29526820; conditions: no comparable liver damage in healthy lean mice; cited from earlier work
[12] = substrate: CC(=O)Nc1ccc(O)cc1; test: Enzyme kinetic study in liver S9, Cyp1a2; assay type: in vitro ADME, mouse; conditions: 37.0 °C
[13] = db/db mice compared to lean littermates after BBR 20 mg·kg^−1 i.g.
[14] = 25 mg·kg^−1 gavage once daily, 4 weeks
[15] = db/db vs lean mice, single 20 mg·kg^−1 i.g.

Molecule: Cc1ccc(Cn2nc(CCCc3ccc(OC(C)(C)C(=O)O)cc3)[nH]c2=O)cc1 [LY518674]
- effect of co-incubation on triglyceride levels within BBR-treated hepatocytes [1]: notable reduction

Molecule: O=C(Nc1ccncc1)c1cc([N+](=O)[O-])ccc1Cl [T0070907]
- effect of co-incubation on triglyceride levels within BBR-treated hepatocytes [1]: notable reduction

B1: Cyp1a2 (Mus musculus) (protein)
chain: MAFSQYISLAPELLLATAIFCLVFWMVRASRTQVPKGLKNPPGPWGLPFIGHMLTVGKNPHLSLTRLSQQYGDVLQIRIGSTPVVVLSGLNTIKQALVRQGDDFKGRPDLYSFTLITNGKSMTFNPDSGPVWAARRRLAQDALKSFSIASDPTSASSCYLEEHVSKEANHLVSKLQKAMAEVGHFEPVSQVVESVANVIGAMCFGKNFPRKSEEMLNIVNNSKDFVENVTSGNAVDFFPVLRYLPNPALKRFKTFNDNFVLFLQKTVQEHYQDFNKNSIQDITSALFKHSENYKDNGGLIPEEKIVNIVNDIFGAGFDTVTTAITWSILLLVTWPNVQRKIHEELDTVVGRDRQPRLSDRPQLPYLEAFILEIYRYTSFVPFTIPHSTTRDTSLNGFHIPKERCIYINQWQVNHDEKQWKDPFVFRPERFLTNNNSAIDKTQSEKVMLFGLGKRRCIGEIPAKWEVFLFLAILLQHLEFSVPPGVKVDLTPNYGLTMKPGTCEHVQAWPRFSK
notes: liver S9 fractions from db/db mice or their lean littermates; from tissue; host or cells: pooled liver S9 fraction of db/db mice or lean littermates
- Km ([12]; other: Cyp1a2, pooled liver S9, Lean): 45.8 µM
- Km ([12]; other: Cyp1a2, pooled liver S9, db/db): 32.5 µM

Continued, in another order:

- liver concentration at 24 h, db/db vs lean [2, 13]: significantly higher
- plasma concentration-time profile (metabolite production) [2, 13]: delayed production
Molecule: CCc1oc2cc(O)ccc2c1C(=O)c1cc(Br)c(O)c(Br)c1 [6‐OH‐BBR, 6‐hydroxy‐benzbromarone]

- effect of co-incubation on triglyceride levels within BBR-treated hepatocytes [1]: notable reduction
Molecule: O=C(Nc1ccccc1)c1cc([N+](=O)[O-])ccc1Cl [GW9662]
- effect on BBR-induced upregulation of typical PPARγ target genes (mRNA) [3]: significantly diminished
- effect on BBR-mediated exacerbation of hepatic steatosis and liver injury ([4]; 1 mg·kg^−1 i.p. with BBR, 4 weeks): markedly mitigated

- effect of co-incubation on triglyceride levels within BBR-treated hepatocytes [1]: failed to mitigate
Molecule: CCC(=O)NC[C@H](Cc1ccc(OCCc2nc(-c3ccccc3)oc2C)cc1)N/C(C)=C\C(=O)c1ccc(C(F)(F)F)cc1 [GW6471]

- nature of BBR binding against the PPARγ agonist rosiglitazone (MST) [6]: competitive
- liver concentration at 2 h post-administration ([2]; db/db mouse livers vs lean littermates, 20 mg·kg^−1 i.g.): notably higher
- decrease in clearance rate (CL) [2, 15]: 42.5%
- increase in area under the curve (AUC), plasma [2, 15]: 1.75 fold
- increase in mean residence time (MRT) [2, 15]: 1.54 fold
- increase in plasma half-life (T1/2) [2, 15]: 2.03 fold
- liver concentration at 24 h ([2]; liver tissues of both groups (db/db and lean), 20 mg·kg^−1 i.g.): undetectable
- metabolism catalyzed by liver S9 fractions ([7]; S9 from db/db mice compared to lean mice): marked reduction
- Km at 2 h ([7]; lean littermates of db/db mice, liver S9 from Lean mice): 8.14 µg/mL
- Km at 2 h ([7]; liver S9 from db/db mice): 9.24 µg/mL
Molecule: CCc1oc2ccccc2c1C(=O)c1cc(Br)c(O)c(Br)c1 [BBR, Benzbromarone]
- cytotoxicity at dosages chosen for further experiments ([5]; 15 and 30 µM): non‐toxic
- IC50 ([5]; Mus musculus, Hepatocyte, read-out: 50% inhibitory concentration (IC50), cell viability, 24 h incubation, CCK8): 80.3 µM
- lipid accumulation (intracellular triglyceride, BODIPY lipid droplets) ([1]; oleic acid (OA)-treated hepatocytes, 16 h): obviously enhanced
- liver weight, serum transaminases, and creatinine levels [4, 14]: increases
- serum triglyceride and non-esterified fatty acid (NEFA) levels [4, 14]: reductions
- fasting plasma glucose levels ([4]; 4-week treatment): significantly decreased
- glucose tolerance ([4]; 4-week treatment): improved
- liver triglyceride levels ([4]; 4-week treatment): elevation
- pyruvate tolerance and insulin sensitivity ([4]; 4-week treatment): diminished
- hepatotoxicity in the livers of healthy rats [8]: negligible hepatotoxicity
- binding affinity for PPARα [9]: weak binding affinity
- binding affinity for PPARγ [10]: weak binding affinity
- hepatic steatosis and liver injury [11]: specifically exacerbates
